In paper PMC10724237, “Identification of 5-HT2A receptor signaling pathways associated with psychedelic potential” (Nature Communications, 2023):
Read-outs that look alike come from different tables or passages of the source.

What was measured:
[1] = molecular target: T1, 5-HT2A receptor (5-HT2AR) (Homo sapiens, UniProt P28223); format: cell-based
T1 construct: gene HTR2A; full-length receptor in HEK293T; co-expressed Galphaq-RLuc8/Gbeta1/Ggamma1-GFP2 for Gq dissociation; C-terminal RLuc8 fusion for beta-arrestin2 recruitment
T1 sequence (P28223 whole entry, the tested form may be a part): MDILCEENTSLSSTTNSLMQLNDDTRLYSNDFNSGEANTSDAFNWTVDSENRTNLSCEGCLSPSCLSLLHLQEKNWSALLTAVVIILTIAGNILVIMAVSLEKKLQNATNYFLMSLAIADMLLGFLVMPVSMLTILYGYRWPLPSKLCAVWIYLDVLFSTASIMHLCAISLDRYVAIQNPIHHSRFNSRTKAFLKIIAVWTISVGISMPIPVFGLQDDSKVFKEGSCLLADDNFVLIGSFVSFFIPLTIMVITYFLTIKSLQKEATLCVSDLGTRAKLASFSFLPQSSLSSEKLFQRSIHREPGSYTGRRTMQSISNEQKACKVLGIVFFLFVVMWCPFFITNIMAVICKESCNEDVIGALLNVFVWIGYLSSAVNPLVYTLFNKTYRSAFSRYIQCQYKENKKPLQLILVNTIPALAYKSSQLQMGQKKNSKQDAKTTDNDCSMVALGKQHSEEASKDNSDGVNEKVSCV

[2] = molecular target: T2, 5-HT2C receptor (5-HT2CR) (Homo sapiens, UniProt P28335); assay: Gq dissociation BRET2 in HEK293T; format: cell-based; conditions: agonist; 37 °C, 60 min
T2 construct: gene HTR2C; full-length receptor in HEK293T with Galphaq-RLuc8/Gbeta1/Ggamma1-GFP2
T2 sequence (P28335 33-458): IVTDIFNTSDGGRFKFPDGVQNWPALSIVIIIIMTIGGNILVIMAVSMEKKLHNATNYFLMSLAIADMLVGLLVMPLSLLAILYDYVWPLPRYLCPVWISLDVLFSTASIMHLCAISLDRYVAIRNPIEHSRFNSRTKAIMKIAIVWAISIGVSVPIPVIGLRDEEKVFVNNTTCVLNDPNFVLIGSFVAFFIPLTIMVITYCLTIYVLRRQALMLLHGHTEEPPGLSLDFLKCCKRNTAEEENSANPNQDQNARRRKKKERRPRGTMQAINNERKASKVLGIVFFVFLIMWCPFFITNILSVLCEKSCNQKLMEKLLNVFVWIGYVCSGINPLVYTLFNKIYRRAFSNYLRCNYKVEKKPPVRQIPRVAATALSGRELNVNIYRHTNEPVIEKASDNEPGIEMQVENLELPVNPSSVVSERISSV

[3] = molecular target: T3, 5-HT2B receptor (5-HT2BR) (Homo sapiens, UniProt P41595); assay: Gq dissociation BRET2 in HEK293T; format: cell-based; conditions: partial agonist; 37 °C, 60 min
T3 construct: gene HTR2B; full-length receptor in HEK293T with Galphaq-RLuc8/Gbeta1/Ggamma1-GFP2
T3 sequence (P41595 whole entry): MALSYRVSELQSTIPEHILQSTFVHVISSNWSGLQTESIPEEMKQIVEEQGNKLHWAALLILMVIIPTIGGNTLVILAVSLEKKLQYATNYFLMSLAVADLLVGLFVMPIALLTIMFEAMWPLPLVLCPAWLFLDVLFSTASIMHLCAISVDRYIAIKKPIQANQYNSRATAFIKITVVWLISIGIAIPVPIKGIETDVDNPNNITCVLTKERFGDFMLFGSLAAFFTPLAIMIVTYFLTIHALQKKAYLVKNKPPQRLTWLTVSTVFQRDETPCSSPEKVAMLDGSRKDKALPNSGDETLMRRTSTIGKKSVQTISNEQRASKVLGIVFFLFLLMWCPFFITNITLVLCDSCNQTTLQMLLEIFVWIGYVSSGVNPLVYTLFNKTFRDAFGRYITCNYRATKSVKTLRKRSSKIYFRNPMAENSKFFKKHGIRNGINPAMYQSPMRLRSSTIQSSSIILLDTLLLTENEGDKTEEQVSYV

[4] = molecular target: T1, 5-HT2A receptor (5-HT2AR); assay: competition radioligand binding (NIMH PDSP); conditions: competitive
[5] = molecular target: T1, 5-HT2A receptor (5-HT2AR); assay: Gq dissociation BRET2 in HEK293T; format: cell-based; conditions: 37 °C

How did the EC50 ([1]; agonist, 37 °C, 60 min) turn out when `COc1ccc2[nH]cc(CCN(C)C)c2c1` [5-MeO-DMT, 5-methoxy-N,N-dimethyltryptamine] was run?
Its EC50 is “(E) Psilocin, (F) DMT, (G) 5-MeO-DMT”.

`CN(C)CCc1c[nH]c2ccccc12` [DMT] was tested. Which EC50 [1] did it give?
The EC50 was “(E) Psilocin, (F) DMT, (G) 5-MeO-DMT”.

For `CN(C)CCc1c[nH]c2cccc(O)c12` [Psilocin], which EC50 ([1]; agonist, 37 °C, 60 min) is on record?
Its EC50 is “(E) Psilocin, (F) DMT, (G) 5-MeO-DMT”.

What does the source list for `COc1cc([N+](=O)[O-])c(OC)cc1CCNCc1ccccc1` [compound 2, 25N-NB]?
EC50 [2]: 8.3 nM; EMAX [3]: 32 % of 5-HT

Which pKi [4] does the source give for `COc1cc([N+](=O)[O-])c(OC)cc1CCNCc1ccccc1I` [compound 10, 25N-NBI] here?
Its pKi is “selectivity for 5-HT2AR over 5-HT2BR and 5-HT2CR in competitive binding studies”.

Which EMAX ([5]; partial agonist) does the source give for `COc1cc(CCNCc2cccc3ccccc23)c(OC)cc1C` [compound 26, 25D-N1-Nap] here?
The EMAX was 34.3 % of 5-HT.

How did the EMAX ([5]; agonist) turn out when `COc1cc(OC)c(OC)cc1CCNCc1ccccc1OC` [compound 32] was run?
Its EMAX is 99.9 % of 5-HT.

With `COc1cc(OC)c(OC)cc1CCNCc1cccc(I)c1` [compound 34, 25O-NB-3-I] as the compound, how does the EMAX ([5]; partial agonist) read?
Its EMAX is 51.7 % of 5-HT.
